Reference: PMC11731258, “The structural basis for high-affinity c-di-GMP binding to the GSPII-B domain of the traffic ATPase PilF from Thermus thermophilus” (The Journal of Biological Chemistry, 2024)
“And” between values parts separate entries of the source, which are not always exact repeats. Equal values may be shown once. Read-outs that look alike come from different tables or passages of the source.

What was measured:
PilB = biological target: PilB; set-up: method as in PMID 27578558, PMID 31868878; details: cited from earlier work
PilF159-302 Q190E = biological target: T1, PilF159-302 Q190E (Thermus thermophilus, UniProt Q5SLC9, Q190E); assay: ITC binding to PilF159-302 Q190E; details: 20 °C
T1 sequence (Q5SLC9 159-302 Q190E): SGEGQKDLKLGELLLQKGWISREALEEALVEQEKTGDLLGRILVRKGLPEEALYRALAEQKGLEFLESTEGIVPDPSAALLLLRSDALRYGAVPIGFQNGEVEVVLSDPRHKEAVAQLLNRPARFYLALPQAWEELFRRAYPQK
Procedure: (§1) To assess the ligand-binding capabilities of the various PilF constructs, triplicates of ITC measurements were recorded for each construct. The measurements were carried out using a MicroCal ITC200 (Malvern Panalytical). All ITC experiments were conducted at 20 °C with 50 mM Tris-HCl pH 7.5, 200 mM sodium chloride, 1 mM β-mercaptoethanol as the sample buffer. All protein samples were extensively dialyzed against the sample buffer and the buffer used for dialysis was used to dilute protein and c-di-GMP samples in preparation for the ITC measurements. Each measurement was conducted using the following protocol. In total, 39.8 μl c-di-GMP were titrated to 270 μl protein in 20 separate injections in 180 s intervals with a stirring speed of 750 rpm. After an initial delay of 120 s, the first injection of 0.2 μl c-di-GMP with a duration of 0.4 s was followed by 19 injections of 2 μl with a duration of 4 s. During the measurement, the feedback mode was set to high and the reference power to 11 μcal s^−1. To optimize precision of the measurements, protein and c-di-GMP concentrations were adjusted to the binding capabilities of the respective constructs and ranged from 5 to 200 μM for protein and 50 to 2000 μM for c-di-GMP. All thermograms were processed using Origin 7.0 (OriginLab) using a one-site– or two-site–binding model dependent on the number of expected binding events.

PilF159-302 K167L = biological target: T2, PilF159-302 K167L (Thermus thermophilus, UniProt Q5SLC9, K167L); assay: ITC binding to PilF159-302 K167L; details: 20 °C
T2 sequence (Q5SLC9 159-302 K167L): T1 sequence (Q5SLC9 159-302 Q190E)
Procedure: as §1

PilF159-482 = biological target: T3, PilF159-482 (Thermus thermophilus, UniProt Q5SLC9); assay: ITC binding to PilF159-482; details: 20 °C; for Kd: pH 7.5, two-site model
T3 sequence (Q5SLC9 159-482): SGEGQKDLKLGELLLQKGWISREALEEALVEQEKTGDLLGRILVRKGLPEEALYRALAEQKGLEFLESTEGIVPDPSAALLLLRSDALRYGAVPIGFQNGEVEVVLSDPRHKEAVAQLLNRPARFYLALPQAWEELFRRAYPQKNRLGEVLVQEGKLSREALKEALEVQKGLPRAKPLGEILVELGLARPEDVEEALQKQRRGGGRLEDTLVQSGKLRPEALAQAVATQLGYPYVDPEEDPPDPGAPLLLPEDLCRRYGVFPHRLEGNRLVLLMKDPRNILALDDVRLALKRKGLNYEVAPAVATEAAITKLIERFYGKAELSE
Procedure: as §1

[1] = biological target: T4, PilF1-302 (GSPII-A and GSPII-B) (Thermus thermophilus, UniProt Q5SLC9); assay: ITC binding to PilF1-302; details: 20 °C
T4 sequence (Q5SLC9 1-302): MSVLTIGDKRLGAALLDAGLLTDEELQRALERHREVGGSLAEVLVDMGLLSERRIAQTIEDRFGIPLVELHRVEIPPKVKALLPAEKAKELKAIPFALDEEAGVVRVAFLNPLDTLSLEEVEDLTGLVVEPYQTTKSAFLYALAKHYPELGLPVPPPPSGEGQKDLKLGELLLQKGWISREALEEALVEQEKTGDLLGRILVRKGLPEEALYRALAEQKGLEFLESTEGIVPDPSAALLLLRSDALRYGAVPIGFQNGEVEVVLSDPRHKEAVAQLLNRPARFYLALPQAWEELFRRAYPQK
Procedure: as §1

PilF GSPII-A domain = assay: ITC comparison of domain truncation constructs; type: binding, Thermus thermophilus; details: inferred from ITC of PilF1-302 vs PilF159-302 and PilF1-482
Procedure: as §1

PilF159-302 Q190E+Q218E = assay: ITC binding to PilF159-302 Q190E+Q218E; set-up: species or system Thermus thermophilus; details: 20 °C, double mutant
Procedure: as §1

[2] = biological target: degenerate EAL-domain of FimX; set-up: method as in PMID 19679088; details: cited from earlier work
PilB2 = biological target: PilB2; set-up: method as in PMID 27578558, PMID 31868878; details: cited from earlier work
PilZ domain of PlzD = biological target: PilZ domain of PlzD; set-up: method as in PMID 18034161; details: cited from earlier work
PilF159-302 K167R = biological target: T5, PilF159-302 K167R (Thermus thermophilus, UniProt Q5SLC9, K167R); assay: ITC binding to PilF159-302 K167R; details: 20 °C
T5 sequence (Q5SLC9 159-302 K167R): T1 sequence (Q5SLC9 159-302 Q190E)
Procedure: as §1

PilF159-302 L166G = biological target: T6, PilF159-302 L166G (Thermus thermophilus, UniProt Q5SLC9, L166G); assay: ITC binding to PilF159-302 L166G; details: 20 °C
T6 sequence (Q5SLC9 159-302 L166G): T1 sequence (Q5SLC9 159-302 Q190E)
Procedure: as §1

[3] = biological target: MshEN (N-terminal domain of ATPase MshE); set-up: method as in PMID 27578558; details: full length MshEN; cited from earlier work
PilF159-302 Q218E = biological target: T7, PilF159-302 Q218E (Thermus thermophilus, UniProt Q5SLC9, Q218E); assay: ITC binding to PilF159-302 Q218E; details: 20 °C
T7 sequence (Q5SLC9 159-302 Q218E): T1 sequence (Q5SLC9 159-302 Q190E)
Procedure: as §1

Compound: Nc1nc2c(ncn2[C@@H]2O[C@@H]3COP(=O)(O)O[C@H]4[C@@H](O)[C@H](n5cnc6c(=O)[nH]c(N)nc65)O[C@@H]4COP(=O)(O)O[C@H]3[C@H]2O)c(=O)[nH]1 [c-di-GMP, cyclic dimeric guanosine monophosphate]
- Kd (PilB): 53 nM
- N (PilF159-302 Q190E): 1.11 ± 0.03
- ΔH (PilF159-302 Q190E): -3.389 ± 0.156 kcal/mol
- ΔS (PilF159-302 Q190E): 15.4 ± 0.4 cal/mol/deg
- Kd (PilF159-302 Q190E; pH 7.5): 950 ± 7 nM
- N (PilF159-302 K167L): 0.76 ± 0.10
- ΔH (PilF159-302 K167L): -10.241 ± 0.494 kcal/mol
- ΔS (PilF159-302 K167L): 5.4 ± 1.4 cal/mol/deg
- Kd (PilF159-302 K167L; pH 7.5): 2 ± 0.3 nM
- N, site 1 (PilF159-482; Table S1 site 1): 1 ± 0.1
- ΔH, site 1 (PilF159-482; Table S1 site 1): -8.689 ± 0.959 kcal/mol
- ΔS, site 1 (PilF159-482; Table S1 site 1): 0.95 ± 3.5 cal/mol/deg
- N, site 2 (PilF159-482; Table S1 site 2): 0.7 ± 0.1
- ΔH, site 2 (PilF159-482; Table S1 site 2): -11.766 ± 1.182 kcal/mol
- ΔS, site 2 (PilF159-482; Table S1 site 2): 2.1 ± 4.7 cal/mol/deg
- Kd (PilF159-482; read-out: KD, site 1 (low affinity)): 208 ± 27 nM
- Kd (PilF159-482; read-out: KD, site 2 (high affinity)): 1 ± 0.3 nM
- N [1]: 0.94 ± 0.13
- ΔH [1]: -14.263 ± 2.001 kcal/mol
- ΔS [1]: -11.4 ± 6.4 cal/mol/deg
- Kd ([1]; pH 7.5): 7 ± 2 nM
- ability to bind c-di-GMP (PilF GSPII-A domain): lacking the ability to bind c-di-GMP
- c-di-GMP binding (PilF159-302 Q190E+Q218E): abrogated c-di-GMP binding
- Kd [2]: 100 to 200 nM
- Kd (PilB2): 13.5 nM
- Kd (PilZ domain of PlzD): 100 to 300 nM
- N (PilF159-302 K167R): 0.79 ± 0.03
- ΔH (PilF159-302 K167R): -10.42 ± 0.552 kcal/mol
- ΔS (PilF159-302 K167R): -4.4 ± 1.9 cal/mol/deg
- Kd (PilF159-302 K167R; pH 7.5): 150 ± 7 nM
- N (PilF159-302 L166G): 0.92 ± 0.10
- ΔH (PilF159-302 L166G): -10.283 ± 0.189 kcal/mol
- ΔS (PilF159-302 L166G): 1.2 ± 3.4 cal/mol/deg
- Kd (PilF159-302 L166G; pH 7.5): 3 nM
- Kd [3]: ~500 nM and 500 nM
- N (PilF159-302 Q218E): 1.26 ± 0.06
- ΔH (PilF159-302 Q218E): -5.312 ± 0.34 kcal/mol
- ΔS (PilF159-302 Q218E): 10.9 ± 1.0 cal/mol/deg
- Kd (PilF159-302 Q218E; pH 7.5): 460 ± 28 nM
